Data on two compounds can be found in paper PMC4650734, “FV-162 is a novel, orally bioavailable, irreversible proteasome inhibitor with improved pharmacokinetics displaying preclinical efficacy with continuous daily dosing” (Cell Death & Disease, 2015).

The test system of data set [1] is rats. As to conditions: cited from earlier work.
Data set [2] is described as follows: Metabolic stability assay with pooled mouse liver microsomes. It counts as in vitro ADME. As to conditions: 5 μM compound, 15 min, 0.5 mg/ml pooled mouse liver microsomes, LC/MS. The protocol: Pooled liver microsomes isolated from male CD-1 mice were purchased from BD Biosciences (San Jose, CA, USA). Metabolic stability was calculated by measuring the percentage of 5 μM of each test compound remaining after 15 min incubation with 0.5 mg/ml liver microsomes at 37 °C. Compounds were detected by LC/MS using a Xevo quadrupole time-of-flight mass spectrometer and an ACQUITY ultra-performance LC (UPLC) system (Waters Inc., Milford, MA, USA) to determine relative peak areas of each parent compound.
(In general: Liver microsomes are vesicles of endoplasmic reticulum, rich in cytochrome P450 enzymes.)

For data set [3], the system named is patients with multiple myeloma. As to conditions: infusion over 30 min; cited from earlier work.
Data set [4] has as its system CT-L proteasome activity. The experiment in a line: CT-L proteasome activity in RBCs of treated mice. In kind it is in vivo, mouse. The note with it: by 24 h after treatment, murine RBCs, data not shown. The protocol: Cells were harvested by centrifugation at 1200 r.p.m. at room temperature. Cell pellets were washed with PBS and lysed with assay lysis buffer (50 mM HEPES (2-[4-(2-hydroxyethyl) piperazin-1-yl]ethanesulfonic acid)), pH 7.5; 150 mM NaCl; 1% Triton X-100; 2 mM ATP). Cell lysates were incubated on ice for 30 min, mixed by vortex every 5 min, and centrifuged at 12 000 × g for 10 min. Supernatants were transferred to a 96-well plate in triplicate. For each assay, 10 μg of total protein were incubated for 1 h at 37 °C with increasing concentrations (0.001–10 μM) of test compound or vehicle control diluted in assay buffer (50 mM Tris-HCl (tris(hydroxymethyl)aminomethane-HCl), pH 7.5; 150 mM NaCl). After incubation, a specific fluorogenic proteasome substrate was added to each assay reaction (40 μM in a total volume of 100 μl). N-Succinyl-Leu-Leu-Val-Tyr-7-amino-4-methylcoumarin (Suc-Leu-Leu-Val-Tyr-AMC) was used for measuring CT-L activity, t-butoxycarbonyl- Leu-Arg-Arg-7-amino-4-methylcoumarin (Boc-Leu-Arg-Arg-AMC) for T-L activity, and benzyloxycarbonyl-L-leucyl-L-leucyl-L-glutamyl-7-amino-4-methylcoumarin (Z-Leu-Leu-Glu-AMC) for C-L activity. The excitation wavelength was 360 nm and the fluorescence emission of free AMC released during the enzymatic reaction was detected at 460 nm on a SpectraMax M5 fluorescent spectrophotometric plate reader (Molecular Devices, Sunnyvale, CA, USA). AMC release rate was measured at 37 °C in a kinetic mode, recording every 5 min for 30 min.
Five-to-six-week-old male NOD/SCID mice were administered vehicle (5% DMSO, 20% Cremophor) or proteasome inhibitors either intravenously or by oral gavage (3 mice per group), and 20–50 μl of venous blood were collected from each mouse over 24 h. Blood samples were mixed with heparin (APP Pharmaceuticals; Schaumburg, IL, USA) in 0.5-ml tubes in accordance with the manufacturer's instructions. After centrifugal separation at 3000 × g for 10 min, RBCs in the bottom layer were transferred into a new tube and stored at −70 °C until use. RBCs were lysed with assay lysis buffer and incubated on ice for 30 min, mixing by vortex every 5 min, and centrifuged at 12 000 × g for 10 min. Supernatants were transferred to a 96-well plate and proteasome activity was measured as described in 'Cell lysates' section.

SMILES strings stand for the structures.

For the compound `CC(C)C[C@H](NC(=O)[C@H](CCc1ccccc1)NC(=O)CN1CCOCC1)C(=O)N[C@@H](Cc1ccccc1)C(=O)N[C@@H](CC(C)C)C(=O)[C@@]1(C)CO1` [carfilzomib], the “rats for which dose was lethal” value in data set [1] (8 mg/kg, bolus infusion, rats) was 44%. Besides, in data set [1] (rat, in vivo), the “toxicity of 30 min infusion” value is “not toxic”. For the same compound, the “percentage of parent compound remaining” value in data set [2] stood at 70%. For the same compound, the “dose tolerated without adverse effects” value in data set [3] is reported as “up to 56 mg/m^2”.

For the compound `CC(C)C[C@H](NC(=O)[C@H](Cc1ccccc1)NC(=O)c1cnccn1)B(O)O` [bortezomib, reference compound], the “proteasome activity recovered, of baseline levels” value in data set [4] is above 50%.
